The values that follow come from patent publication US20070213359A1 (ACADIA Pharmaceuticals Inc., priority 2005, published 2007).

The target in one experiment is Ghrelin receptor (Homo sapiens, UniProt Q92847). As to the kind of experiment: Receptor Selection and Amplification Technology (R-SAT) assay. Further details: expressed in transfected cells; host or cells: NIH3T3. Format: cell-based. Conditions: percent inhibition at saturating ligand, normalized to reference ligand Substance P analog = 100%; read-out: RSAT Eff(%).
Chain of Ghrelin receptor (Q92847 whole entry): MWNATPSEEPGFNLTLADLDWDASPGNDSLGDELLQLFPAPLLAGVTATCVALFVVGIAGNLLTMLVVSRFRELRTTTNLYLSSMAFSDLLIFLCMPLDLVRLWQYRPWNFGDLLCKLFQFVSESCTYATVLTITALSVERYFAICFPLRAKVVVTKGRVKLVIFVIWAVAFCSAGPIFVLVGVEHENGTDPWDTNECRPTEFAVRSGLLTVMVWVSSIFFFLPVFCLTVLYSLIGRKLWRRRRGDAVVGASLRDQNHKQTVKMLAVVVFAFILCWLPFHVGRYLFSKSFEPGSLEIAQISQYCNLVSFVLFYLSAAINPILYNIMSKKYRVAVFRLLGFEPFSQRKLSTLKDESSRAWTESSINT
Take `COc1cccc2c(C#N)cn(CCCN3CCC(c4nc(-c5ccncc5)no4)CC3)c12`: the Emax came to 40%. Still for that read-out and setting: in the case of `O=C(c1cn(CCCN2CCCC(Cc3ccccc3Cl)C2)c2ncccc12)C(F)(F)F` (stereo not shown) it was 27%. On the same count and under the same terms, next, `O=C(c1cn(CCCN2CCC(Oc3cccc(Cl)c3)CC2)c2ncccc12)C(F)(F)F`: 23%. Turning to `CC(CN1C2CCC1CC(Oc1ccc(F)cc1)C2)Cn1cc(C(=O)C(F)(F)F)c2cccnc21` (stereo not shown), the Emax was 35%. Still for that read-out and setting: next, `CC(=O)c1cn(CCCN2CCCC(Oc3ccc(Cl)cc3)C2)c2ncccc12` (stereo not shown): 53%; `COc1cccc2c(C#N)cn(CCCN3CCCC(Oc4ccc(Cl)cc4)C3)c12` (stereo not shown): 48%.

`COc1ccc2[nH]c3c(c2c1)CCN(CC(C)Cn1c(=O)sc2ccccc21)C3` (stereo not shown): the Emax is -10%. Same read-out and setting: in the case of `COc1ccc2[nH]c3c(c2c1)CCN(CCCCn1cc(C(C)=O)c2ccccc21)C3` it was 9%; in that of `COc1cccc2c(C#N)cn(CCCN3CCN(CCOc4ccc(Cl)c5ccccc45)CC3)c12`, 21%. The same measure, in the same setting: next, `CC(CN1CCC2(CC1)CC(=O)c1ccccc1O2)Cn1cc(C(=O)C(F)(F)F)c2cccnc21` (stereo not shown): 26%. With `O=C(c1cn(CCCN2CCCC(Oc3ccc(Cl)cc3)C2)c2ncccc12)C(F)(F)F` (stereo not shown), the Emax amounted to 2%.

As to `O=C(c1cn(CCCN2CCC(CCOc3ccc(Cl)cc3)CC2)c2ncccc12)C(F)(F)F`, the Emax was 37%. For `COc1cccc2c(C#N)cn(CCCN3CCC4(CC3)CC(=O)c3ccccc3O4)c12`, the Emax was determined as 41%. The same measure, in the same setting: next, `COc1cccc2c(C#N)cn(CCCN3CCC(CCOc4ccc(Cl)cc4)CC3)c12`: -3%; `O=C(c1cn(CCCNC2Cc3ccccc3C2)c2ncccc12)C(F)(F)F`: -3%; `O=C(c1cn(CCCN2CCN(c3ncc(C(F)(F)F)cc3Cl)CC2)c2ncccc12)C(F)(F)F`: 27%. Still for that read-out and setting: next, `O=C(c1cn(CCCN2CCN(CCOc3ccc(Cl)cc3)CC2)c2ncccc12)C(F)(F)F`: 38%; `O=C(c1cn(CCCNCCOc2ccccc2)c2ncccc12)C(F)(F)F`: 26%. The same measure, in the same setting: next, `O=C(c1cn(CCCN2CCCN(CCc3ccccc3)CC2)c2ncccc12)C(F)(F)F`: 51%; `O=C(c1cn(CCCN2CCC(c3nc(-c4ccncc4)no3)CC2)c2ncccc12)C(F)(F)F`: 31%. With `O=C(c1cn(CCCN2CCC(c3nc(-c4cccnc4)no3)CC2)c2ncccc12)C(F)(F)F`, the Emax was found to be 72%. Take `CC(=O)c1cn(CCCN2CCN(CCOc3ccc(Cl)cc3)CC2)c2ncccc12`: the Emax was 62%.

On to `CC(=O)c1cn(CCCN2CCC(c3nc(-c4ccncc4)no3)CC2)c2ncccc12`, for which the Emax is 88%. Same read-out and setting: next, `COc1cccc2c(C#N)cn(CCCN3CCN(CCOc4ccc(Cl)cc4)CC3)c12`: -23%. In the case of `COc1cccc2c(C#N)cn(CCCN3CCN(CCOc4ccccc4)CC3)c12`, the Emax came out at 42%. Same read-out and setting: in the case of `COc1cccc2c(C#N)cn(CCCN3CCN(Cc4ccc(Cl)cc4Cl)CC3)c12` it was 30%; in that of `COc1cccc2c(C#N)cn(CCCN3CCC(c4nc(-c5cccnc5)no4)CC3)c12`, 23%; in that of `O=C(c1cn(CCCN2CCN(CCOc3ccccc3)CC2)c2ncccc12)C(F)(F)F`, 27%.

In the case of `CC(=O)c1cn(CCCN2C3CCC2CC(CC(=O)c2ccc(Cl)cc2)C3)c2ncccc12` (stereo not shown), the Emax came out at 11%.

The same experiment, now with this note: read-out: RSAT Eff(%).
Regarding `CC(=O)c1c(C)n(CCCN2CCCC(Oc3ccc(Cl)cc3)C2)c2c(Br)cccc12` (stereo not shown), the Emax amounted to 24%. On to `CC(=O)c1c(C)n(CCCN2CCCC(Cc3ccccc3Cl)C2)c2c(Br)cccc12` (stereo not shown), for which the Emax was found to be 5%.

With `CC(=O)c1c(C)n(CCCN2CCC(Cc3ccccc3Cl)C2)c2c(Br)cccc12` (stereo not shown), the Emax is 38%.

Turning to `COc1cccc2c(C(C)=O)cn(CC(C)CN3CCCC(Oc4ccc(Cl)cc4)C3)c12` (stereo not shown), the Emax was -1%.

As for `COc1cccc2c(C(C)=O)cn(CC(C)CN3C4CCC3CC(Oc3ccc(F)cc3)C4)c12` (stereo not shown), the Emax amounted to 44%. As to `COc1cccc2c(C(C)=O)cn(CC(C)CN3CCC(CCOc4ccc(Cl)cc4)CC3)c12` (stereo not shown), the Emax amounted to 22%. Still for that read-out and setting: next, `CC(=O)c1cn(CCCN2CCCC(Oc3ccc(Cl)cc3)C2)c2c(C#N)cccc12` (stereo not shown): 31%; `CC(=O)c1cn(CCCN2C3CCC2CC(CC(=O)c2ccc(Cl)cc2)C3)c2c(C#N)cccc12` (stereo not shown): 31%; `CCCCC1CCN(CCn2cc(C(C)=O)c3ccccc32)CC1`: 23%. Same read-out and setting: next, `CC(=O)c1cn(CC(C)CN2CCC(C(=O)c3ccccc3)CC2)c2ccccc12` (stereo not shown): 2%; `CC(=O)c1cn(CCCCN2CCC(C(=O)c3ccccc3)CC2)c2ccccc12`: 38%; `CC(=O)c1cn(CCCCN2CCC(Oc3ccc(F)cc3)CC2)c2ccccc12`: 41%. Same read-out and setting: in the case of `CC(=O)c1cn(CC(O)CN2CCN(C(C)c3ccccc3)CC2)c2ccccc12` (stereo not shown) it was 23%; in that of `CC(=O)c1cn(CC(C)CN2CCC(O)(Cc3ccccc3)CC2)c2ccccc12` (stereo not shown), -3%; in that of `CC(=O)c1cn(CCCCN2CCC(O)(Cc3ccccc3)CC2)c2ccccc12`, 24%. As for `CC(=O)c1cn(CCCCN2C3CCC2CC(O)(c2ccc(F)cc2)C3)c2ccccc12` (stereo not shown), the Emax came out at 2%. Same read-out and setting: next, `CCC(=O)c1cn(CCCN2C3CCC2CC(O)(c2ccc(F)cc2)C3)c2ccccc12` (stereo not shown): 18%; `O=C(c1cn(CCCN2CCC(S(=O)(=O)c3ccc(Cl)cc3)CC2)c2ccccc12)C(F)(F)F`: 6%. Same read-out and setting: in the case of `CCC(=O)c1cn(CCCN2CCC(S(=O)(=O)c3ccc(Cl)cc3)CC2)c2ccccc12` it was 1%; in that of `CCN(CC)C(=O)C1CCCN(CCCn2cc(C(C)=O)c3cccc(OC)c32)C1` (stereo not shown), 16%. Still for that read-out and setting: next, `COc1cccc2c(C(C)=O)cn(CCCN3C4CCC3CC(O)(c3ccc(F)cc3)C4)c12` (stereo not shown): 3%; `CC(=O)c1cn(CCCN2CCC(CCOc3ccc(Cl)cc3)CC2)c2c(Cl)cccc12`: 53%. As for `CC(=O)c1cn(CCCN2CCN(CCOc3ccc(Cl)cc3)CC2)c2c(C)cccc12`, the Emax stood at 53%. Still for that read-out and setting: next, `CC(=O)c1cn(CCCN2CCN(CCOc3ccc(Cl)cc3)CC2)c2c(Br)cccc12`: 12%; `COc1cccc2c(C(=O)C3CC3)cn(CCCN3CCN(CCOc4ccc(Cl)c5ccccc45)CC3)c12`: 44%. Same read-out and setting: in the case of `CC(=O)c1cn(CCCN2CCN(CCOc3ccc(Cl)cc3)CC2)c2c(Cl)cccc12` it was 32%; in that of `COc1cccc2c(C(=O)NCc3cccc(C)c3)cn(CCCN3CCN(CCOc4ccc(Cl)c5ccccc45)CC3)c12`, 2%. Consider `COc1cccc2c(C(=O)NCc3cccc(Cl)c3)cn(CCCN3CCN(CCOc4ccc(Cl)c5ccccc45)CC3)c12`, for which the Emax was found to be 59%.

Take `CC(=O)c1c(C)n(CCCN2CCC3(CC2)CC(=O)c2ccccc2O3)c2c(Br)cccc12`: the Emax turned out to be 8%. On to `CCc1cccc2c(C(C)=O)cn(CCCN3CCCC(Oc4ccc(Cl)cc4)C3)c12` (stereo not shown), for which the Emax came out at 13%. On the same count and under the same terms, next, `COc1cccc2c(C(C)=O)cn(CC(C)CN3CCC4(CC3)CC(=O)c3ccccc3O4)c12` (stereo not shown): 55%.

With `CC(=O)c1cn(CCCN2CCC(CCOc3ccc(Cl)cc3)CC2)c2c(C#N)cccc12`, the Emax came to 27%. The same measure, in the same setting: next, `CC(=O)c1c(C)n(CCCN2CCN(CCOc3ccc(Cl)cc3)CC2)c2c(Br)cccc12`: -13%; `CC(=O)c1c(C)n(CCCN2CCC(c3nc(-c4ccncc4)no3)CC2)c2c(Br)cccc12`: 25%. As for `CC(=O)c1c(C)n(CCCN2CCC(c3nc(-c4cccnc4)no3)CC2)c2c(Br)cccc12`, the Emax was determined as 12%. Turning to `CCc1cccc2c(C(C)=O)cn(CCCN3CCN(CCOc4ccc(Cl)cc4)CC3)c12`, the Emax is 24%. As for `CCc1cccc2c(C(C)=O)cn(CCCN3CCC(c4nc(-c5cccnc5)no4)CC3)c12`, the Emax is 61%. Same read-out and setting: next, `COc1cccc2c(C(C)=O)cn(CC(C)CNCCOc3ccccc3)c12` (stereo not shown): 29%; `COc1cccc2c(C(C)=O)cn(CC(C)CN3CCN(CCOc4ccccc4)CC3)c12` (stereo not shown): -7%; `COc1cccc2c(C(C)=O)cn(CC(C)CN3CCCN(CCc4ccccc4)CC3)c12` (stereo not shown): 31%.

Regarding `COc1cccc2c(C(C)=O)cn(CC(C)CN3CCC(c4nc(-c5ccncc5)no4)CC3)c12` (stereo not shown), the Emax was 78%. Still for that read-out and setting: next, `COc1cccc2c(C(C)=O)cn(CC(C)CN3CCC(c4nc(-c5cccnc5)no4)CC3)c12` (stereo not shown): 83%; `COc1cccc2c(C(=O)Cc3ccccc3)cn(CCCN3CCN(CCOc4ccc(Cl)c5ccccc45)CC3)c12`: 46%; `CC(=O)c1cn(CCCN2CCN(CCOc3ccc(Cl)cc3)CC2)c2c(C#N)cccc12`: 4%.

Take `CC(=O)c1cn(CCCNCCOc2ccccc2)c2c(C#N)cccc12`: the Emax was determined as 11%. The same measure, in the same setting: in the case of `CC(=O)c1cn(CCCN2CCN(CCOc3ccc(Cl)c4ccccc34)CC2)c2c(C#N)cccc12` it was 53%. Same read-out and setting: in the case of `CC(=O)c1cn(CCCN2CCCC(Cc3ccccc3Cl)C2)c2c(C)cccc12` (stereo not shown) it was 38%; in that of `CC(=O)c1cn(CCCN2CCC(Cc3ccccc3Cl)C2)c2c(C)cccc12` (stereo not shown), 47%; in that of `CC(=O)c1cn(CCCN2C3CCC2CC(CC(=O)c2ccc(Cl)cc2)C3)c2c(C)cccc12` (stereo not shown), 19%. Still for that read-out and setting: in the case of `CC(=O)c1cn(CCCN2CCC3(CC2)CC(=O)c2ccccc2O3)c2c(Br)cccc12` it was 3%.

Take `CC(=O)c1cn(CCCN2CCCC(Cc3ccccc3Cl)C2)c2c(Br)cccc12` (stereo not shown): the Emax is -18%. Take `CC(=O)c1cn(CCCN2C3CCC2CC(CC(=O)c2ccc(Cl)cc2)C3)c2c(Br)cccc12` (stereo not shown): the Emax turned out to be 33%. As to `CC(=O)c1cn(CCCN2C3CCC2CC(Oc2ccccc2Cl)C3)c2c(Br)cccc12` (stereo not shown), the Emax worked out at 65%. On the same count and under the same terms, in the case of `COc1cccc2c(C(=O)C3CC3)cn(CCCN3CCCC(Cc4ccccc4Cl)C3)c12` (stereo not shown) it was 28%; in that of `CC(=O)c1cn(CCCN2CCC3(CC2)CC(=O)c2ccccc2O3)c2c(Cl)cccc12`, 40%; in that of `CC(=O)c1cn(CCCN2CCCC(Oc3ccc(Cl)cc3)C2)c2c(Cl)cccc12` (stereo not shown), 7%.
